# Laboratory results as given in patent publication US11053204B2, “Pyrimidinyloxy benzene derivatives as herbicides” (FMC Corporation, priority 2015, dated 2021).
# Experiments:
# Format in all cases: in vivo
# [1] = tested on: pigweed (Amaranthus retroflexus); assay: Test C postemergence, plant response rating; conditions: for pest or weed control at 16 g/ha / pest or weed control at 31 g/ha / pest or weed control at 62 g/ha / pest or weed control at 125 g/ha: Amaranthus retroflexus, post-emergence; for pest or weed control at 62 g/ha / pest or weed control at 125 g/ha / Pigweed plant response rating: scale 0 to 100 (0 no effect, 100 complete control)
# Method in brief: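 Preemergence: seeds sown in loam–sand blend or silt loam and sprayed with test chemicals in a non-phytotoxic surfactant-containing solvent. Postemergence: potted plants at 2–18 cm (1–4-leaf stage) sprayed with the same formulation. After 13–15 d in greenhouse, visual rating versus controls on 0 (no effect) to 100 (complete control) scale.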
# [2] = tested on: Italian ryegrass (Lolium multiflorum); assay: Test A postemergence, visual injury rating; conditions: 0 is no effect, 100 is complete control; for pest or weed control at 125 g/ha / pest or weed control at 500 g/ha: Lolium multiflorum, post-emergence, 240 h, read-out: Ryegrass, Italian plant response rating (0 to 100 scale); for pest or weed control at 500 g/ha: 500 g ai/ha; for Ryegrass, Italian plant response rating: 0 to 100 scale, approximately 10 days
# Method in brief: (§1)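 Visual injury scored 0–100 (100 = complete control) against untreated controls about 10 days after treatment in a greenhouse. Test chemicals, formulated with surfactant in non-phytotoxic solvent, were sprayed on soil preemergence or on 2-10 cm, one- to two-leaf plants postemergence.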
# [3] = tested on: barnyardgrass (Echinochloa crus-galli); assay: Test A postemergence, visual injury rating; conditions: 0 is no effect, 100 is complete control; for pest or weed control at 125 g/ha / pest or weed control at 500 g/ha: Echinochloa crus-galli, post-emergence, 240 h, read-out: Barnyardgrass plant response rating (0 to 100 scale); for pest or weed control at 500 g/ha: 500 g ai/ha
# Method in brief: as §1
# [4] = tested on: giant foxtail (Setaria faberii); assay: Test A postemergence, visual injury rating; conditions: 0 is no effect, 100 is complete control; for pest or weed control at 125 g/ha / pest or weed control at 500 g/ha: Setaria faberi, post-emergence, 240 h, read-out: Foxtail, Giant plant response rating (0 to 100 scale); for pest or weed control at 500 g/ha: 500 g ai/ha
# Method in brief: as §1
# [5] = tested on: ragweed (common ragweed, Ambrosia elatior); assay: Test A postemergence, visual injury rating; conditions: 0 is no effect, 100 is complete control; for pest or weed control at 125 g/ha / pest or weed control at 500 g/ha: Ambrosia artemisiifolia, post-emergence, 240 h, read-out: Ragweed plant response rating (0 to 100 scale); for pest or weed control at 500 g/ha: 500 g ai/ha; for Ragweed plant response rating: 0 to 100 scale, approximately 10 days
# Method in brief: as §1
# [6] = tested on: galium (catchweed bedstraw, Galium aparine); assay: Test A postemergence, visual injury rating; conditions: 0 is no effect, 100 is complete control; for pest or weed control at 125 g/ha / pest or weed control at 500 g/ha: Galium, post-emergence, 240 h, read-out: Galium plant response rating (0 to 100 scale); for pest or weed control at 500 g/ha: 500 g ai/ha
# Method in brief: as §1
# [7] = tested on: wheat (Triticum aestivum); assay: Test A postemergence, visual injury rating; conditions: 0 is no effect, 100 is complete control; for plant injury at 125 g/ha / plant injury at 500 g/ha: Triticum aestivum, post-emergence, 240 h, read-out: Wheat plant response rating (0 to 100 scale); for plant injury at 500 g/ha: 500 g ai/ha; for Wheat plant response rating: 0 to 100 scale, approximately 10 days
# Method in brief: as §1
# [8] = tested on: blackgrass (Alopecurus myosuroides); assay: Test A postemergence, visual injury rating; conditions: 0 is no effect, 100 is complete control; for pest or weed control at 125 g/ha / pest or weed control at 500 g/ha: Alopecurus myosuroides, post-emergence, 240 h, read-out: Blackgrass plant response rating (0 to 100 scale); for pest or weed control at 500 g/ha: 500 g ai/ha
# Method in brief: as §1
# [9] = tested on: pigweed (Amaranthus retroflexus); assay: Test A postemergence, visual injury rating; conditions: 0 is no effect, 100 is complete control; for pest or weed control at 125 g/ha / pest or weed control at 500 g/ha: Amaranthus retroflexus, post-emergence, 240 h, read-out: Pigweed plant response rating (0 to 100 scale); for pest or weed control at 500 g/ha: 500 g ai/ha; for Pigweed plant response rating: 0 to 100 scale, approximately 10 days
# Method in brief: as §1
# [10] = tested on: kochia (Kochia scoparia); assay: Test A postemergence, visual injury rating; conditions: 0 is no effect, 100 is complete control; for pest or weed control at 125 g/ha / pest or weed control at 500 g/ha: Bassia scoparia, post-emergence, 240 h, read-out: Kochia plant response rating (0 to 100 scale); for pest or weed control at 500 g/ha: 500 g ai/ha; for Kochia plant response rating: 0 to 100 scale, approximately 10 days
# Method in brief: as §1
# [11] = tested on: corn (Zea mays); assay: Test A postemergence, visual injury rating; conditions: 0 is no effect, 100 is complete control; for plant injury at 125 g/ha / plant injury at 500 g/ha: Zea mays, post-emergence, 240 h, read-out: Corn plant response rating (0 to 100 scale); for plant injury at 500 g/ha: 500 g ai/ha
# Method in brief: as §1
# [12] = tested on: barnyardgrass (Echinochloa crus-galli); assay: Test B flooded paddy test, plant response rating; conditions: 250 g ai/ha, Flood, scale of 0 to 100 where 0 is no effect and 100 is complete control, 13 to 15 days; for pest or weed control at 250 g/ha: Echinochloa crus-galli, 312 h
# Method in brief: (§2)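 Ratings were visual and made relative to untreated controls after 13 to 15 greenhouse days.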
# [13] = tested on: ducksalad (Heteranthera limosa); assay: Test B flooded paddy test, plant response rating; conditions: 250 g ai/ha, Flood, scale of 0 to 100 where 0 is no effect and 100 is complete control, 13 to 15 days; for pest or weed control at 250 g/ha: Heteranthera limosa, 312 h
# Method in brief: as §2
# [14] = tested on: rice (Oryza sativa); assay: Test B flooded paddy test, plant response rating; conditions: 250 g ai/ha, Flood, scale of 0 to 100 where 0 is no effect and 100 is complete control, 13 to 15 days; for plant injury at 250 g/ha: Oryza sativa, 312 h
# Method in brief: as §2
# [15] = tested on: sedge, umbrella (small-flower umbrella sedge, Cyperus difformis); assay: Test B flooded paddy test, plant response rating; conditions: 250 g ai/ha, Flood, scale of 0 to 100 where 0 is no effect and 100 is complete control, 13 to 15 days; for pest or weed control at 250 g/ha: Cyperus difformis, 312 h
# Method in brief: as §2
# [16] = 31 g ai/ha, 0 to 100 scale, approximately 10 days
smiles,measurement,setting,value
"C=CCCOC(=O)c1c(Br)cccc1Oc1ncc(Cl)cn1 [Compound 21, 3-buten-1-yl 2-bromo-6-[(5-chloro-2-pyrimidinyl)oxy]benzoate]",pest or weed control at 16 g/ha,"[1]; 16 g ai/ha, scale 0 to 100",85%
same,pest or weed control at 31 g/ha,"[1]; 31 g ai/ha, scale 0 to 100",75%
same,pest or weed control at 62 g/ha,[1]; 62 g ai/ha,90%
same,pest or weed control at 125 g/ha,[1]; 125 g ai/ha,90%
same,pest or weed control at 125 g/ha,[2]; 125 g ai/ha,0%
same,pest or weed control at 500 g/ha,[2],90%
same,pest or weed control at 125 g/ha,[3]; 125 g ai/ha,70%
same,pest or weed control at 500 g/ha,[3],100%
same,pest or weed control at 125 g/ha,[4]; 125 g ai/ha,70%
same,pest or weed control at 500 g/ha,[4],100%
same,pest or weed control at 125 g/ha,[5]; 125 g ai/ha,0%
same,pest or weed control at 500 g/ha,[5],40%
same,pest or weed control at 125 g/ha,[6]; 125 g ai/ha,80%
same,pest or weed control at 500 g/ha,[6],90%
same,plant injury at 125 g/ha,[7]; 125 g ai/ha,0%
same,plant injury at 500 g/ha,[7],40%
same,pest or weed control at 125 g/ha,[8]; 125 g ai/ha,60%
same,pest or weed control at 500 g/ha,[8],80%
same,pest or weed control at 125 g/ha,[9]; 125 g ai/ha,80%
same,pest or weed control at 500 g/ha,[9],100%
same,pest or weed control at 125 g/ha,[10]; 125 g ai/ha,90%
same,pest or weed control at 500 g/ha,[10],100%
same,plant injury at 125 g/ha,[11]; 125 g ai/ha,30%
same,plant injury at 500 g/ha,[11],60%
same,pest or weed control at 250 g/ha,[12],30%
same,pest or weed control at 250 g/ha,[13],70%
same,plant injury at 250 g/ha,[14],0%
same,pest or weed control at 250 g/ha,[15],100%
"C=CCOC(=O)c1c(Br)cccc1Oc1ncc(Cl)cn1 [Compound 22, 2-propen-1-yl 2-bromo-6-[(5-chloro-2-pyrimidinyl)oxy]benzoate]",pest or weed control at 16 g/ha,"[1]; 16 g ai/ha, scale 0 to 100",60%
same,pest or weed control at 31 g/ha,"[1]; 31 g ai/ha, scale 0 to 100",70%
same,pest or weed control at 62 g/ha,[1]; 62 g ai/ha,70%
same,pest or weed control at 125 g/ha,[1]; 125 g ai/ha,95%
same,pest or weed control at 125 g/ha,[2]; 125 g ai/ha,0%
same,pest or weed control at 500 g/ha,[2],60%
same,pest or weed control at 125 g/ha,[3]; 125 g ai/ha,60%
same,pest or weed control at 500 g/ha,[3],100%
same,pest or weed control at 125 g/ha,[4]; 125 g ai/ha,80%
same,pest or weed control at 500 g/ha,[4],100%
same,pest or weed control at 125 g/ha,[5]; 125 g ai/ha,0%
same,pest or weed control at 500 g/ha,[5],30%
same,pest or weed control at 125 g/ha,[6]; 125 g ai/ha,30%
same,pest or weed control at 500 g/ha,[6],90%
same,plant injury at 125 g/ha,[7]; 125 g ai/ha,0%
same,plant injury at 500 g/ha,[7],30%
same,pest or weed control at 125 g/ha,[8]; 125 g ai/ha,60%
same,pest or weed control at 500 g/ha,[8],90%
same,pest or weed control at 125 g/ha,[9]; 125 g ai/ha,100%
same,pest or weed control at 500 g/ha,[9],100%
same,pest or weed control at 125 g/ha,[10]; 125 g ai/ha,90%
same,pest or weed control at 500 g/ha,[10],100%
same,plant injury at 125 g/ha,[11]; 125 g ai/ha,30%
same,plant injury at 500 g/ha,[11],50%
same,pest or weed control at 250 g/ha,[12],0%
same,pest or weed control at 250 g/ha,[13],40%
same,plant injury at 250 g/ha,[14],0%
same,pest or weed control at 250 g/ha,[15],50%
O=C(CCCC(F)(F)F)c1c(Br)cccc1Oc1ncc(Cl)cn1 [Compound 77],"Plant response rating, Pigweed","[1]; 16 g ai/ha, scale of 0 to 100",95
same,"Plant response rating, Pigweed","[1]; 31 g ai/ha, scale 0 to 100",98
same,Pigweed plant response rating,[1]; 62 g ai/ha,100
same,Pigweed plant response rating,[1]; 125 g ai/ha,100
same,"Ryegrass, Italian plant response rating",[2]; 31 g ai/ha,20
same,"Ryegrass, Italian plant response rating",[2]; 125 g ai/ha,60
same,Barnyardgrass plant response rating,[3]; [16],30
same,Barnyardgrass plant response rating (0 to 100 scale),[3]; 125 g ai/ha,90
same,"Foxtail, Giant plant response rating",[4]; [16],30
same,"Foxtail, Giant plant response rating (0 to 100 scale)",[4]; 125 g ai/ha,90
same,Ragweed plant response rating,[5]; 31 g ai/ha,0
same,Ragweed plant response rating,[5]; 125 g ai/ha,0
same,Galium plant response rating,[6]; [16],90
same,Galium plant response rating (0 to 100 scale),[6]; 125 g ai/ha,100
same,Wheat plant response rating,[7]; 31 g ai/ha,0
same,Wheat plant response rating,[7]; 125 g ai/ha,10
same,Blackgrass plant response rating,[8]; [16],20
same,Blackgrass plant response rating (0 to 100 scale),[8]; 125 g ai/ha,50
same,Pigweed plant response rating,[9]; 31 g ai/ha,100
same,Pigweed plant response rating,[9]; 125 g ai/ha,100
same,Kochia plant response rating,[10]; 31 g ai/ha,100
same,Kochia plant response rating,[10]; 125 g ai/ha,100
same,Corn plant response rating,[11]; [16],10
same,Corn plant response rating (0 to 100 scale),[11]; 125 g ai/ha,30
same,"Plant response rating, Barnyardgrass",[12],15
same,"Plant response rating, Ducksalad",[13],85
same,"Plant response rating, Rice",[14],0
same,"Plant response rating, Sedge, Umbrella",[15],100
